According to the supplement of paper PMC10307832:

compound: N#CC1(c2ccc(NC(=O)c3cccnc3NCc3ccncc3)cc2)CCCC1 [Apatinib] + CC(=O)c1c(C)c2cnc(Nc3ccc(N4CCNCC4)cn3)nc2n(C2CCCC2)c1=O [Palbociclib] (partner 0.5 µM); assay: relative viability (nuclei count vs DMSO), 5 days (fraction); higher = more cells survive; settings: first compound 0.08 µM
Procedure, shortened: (§1)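 The day after seeding in 1536-well plates, lung cancer cell lines were treated by pin tool with a single drug, or with a fixed anchor-drug dose together with five library-drug doses (not always all listed) in √10 steps. After 5 days, a combined fix-and-stain solution (final 0.05% Triton X-100, 1% formaldehyde, 1 ug/ml Hoechst) was added. Nuclei counted on 4× images gave relative viability as treated counts over vehicle counts, reported as the median of duplicate plates.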

Row | Cell Line | relative viability
1 | NCI-H1915 | 0.549
2 | NCI-H1944 | 0.362
3 | NCI-H1975 | 0.654
4 | NCI-H1993 | 0.783
5 | NCI-H2009 | 0.423
6 | NCI-H2023 | 0.381
7 | NCI-H2085 | 0.469
8 | NCI-H2087 | 0.231
9 | NCI-H2126 | 0.324
10 | NCI-H2170 | 0.387
11 | NCI-H2228 | 0.668
12 | NCI-H2342 | 0.497
13 | NCI-H2347 | 0.469
14 | NCI-H2405 | 0.528
15 | NCI-H3122 | 0.186
16 | PC-14 | 0.555
17 | RERF-LC-KJ | 1.11
18 | SK-LU-1 | 0.372
19 | SK-MES-1 | 0.335
20 | SW 900 | 0.616
21 | SW 1573 | 0.4
22 | UMC-11 | 0.322

same assay, conditions: first compound 0.253 µM

Row | Cell Line | relative viability
23 | NCI-H1915 | 0.524
24 | NCI-H1944 | 0.327
25 | NCI-H1975 | 0.634
26 | NCI-H1993 | 0.736
27 | NCI-H2009 | 0.206
28 | NCI-H2023 | 0.402
29 | NCI-H2085 | 0.493
30 | NCI-H2087 | 0.256
31 | NCI-H2126 | 0.352
32 | NCI-H2170 | 0.382
33 | NCI-H2228 | 0.788
34 | NCI-H2342 | 0.524
35 | NCI-H2347 | 0.407
36 | NCI-H2405 | 0.569
37 | NCI-H3122 | 0.231
38 | PC-3 [JPC-3] | 0.555
39 | PC-14 | 0.619
40 | RERF-LC-KJ | 1.1
41 | SK-LU-1 | 0.402
42 | SK-MES-1 | 0.323
43 | SW 900 | 0.548
44 | SW 1573 | 0.518
45 | UMC-11 | 0.326

same assay, conditions: first compound 0.8 µM

Row | Cell Line | relative viability
46 | NCI-H1915 | 0.555
47 | NCI-H1944 | 0.272
48 | NCI-H1975 | 0.597
49 | NCI-H1993 | 0.597
50 | NCI-H2009 | 0.227
51 | NCI-H2023 | 0.354
52 | NCI-H2085 | 0.487
53 | NCI-H2087 | 0.248
54 | NCI-H2126 | 0.355
55 | NCI-H2170 | 0.362
56 | NCI-H2228 | 0.776
57 | NCI-H2342 | 0.49
58 | NCI-H2347 | 0.452
59 | NCI-H2405 | 0.546
60 | NCI-H3122 | 0.191
61 | PC-3 [JPC-3] | 0.557
62 | PC-14 | 0.493
63 | RERF-LC-KJ | 0.467
64 | SK-LU-1 | 0.433
65 | SK-MES-1 | 0.282
66 | SW 900 | 0.558
67 | SW 1573 | 0.433
68 | UMC-11 | 0.278

same assay, conditions: first compound 2.53 µM

Row | Cell Line | relative viability
69 | NCI-H1915 | 0.5
70 | NCI-H1944 | 0.325
71 | NCI-H1975 | 0.522
72 | NCI-H1993 | 0.528
73 | NCI-H2009 | 0.203
74 | NCI-H2023 | 0.376
75 | NCI-H2085 | 0.416
76 | NCI-H2087 | 0.266
77 | NCI-H2126 | 0.322
78 | NCI-H2170 | 0.379
79 | NCI-H2228 | 0.708
80 | NCI-H2342 | 0.498
81 | NCI-H2347 | 0.384
82 | NCI-H2405 | 0.513
83 | NCI-H3122 | 0.23
84 | PC-3 [JPC-3] | 0.516
85 | PC-14 | 0.611
86 | RERF-LC-KJ | 1.05
87 | SK-LU-1 | 0.381
88 | SK-MES-1 | 0.292
89 | SW 900 | 0.478
90 | SW 1573 | 0.379
91 | UMC-11 | 0.31

same assay, conditions: first compound 8 µM

Row | Cell Line | relative viability
92 | NCI-H1915 | 0.475
93 | NCI-H1944 | 0.255
94 | NCI-H1975 | 0.526
95 | NCI-H1993 | 0.616
96 | NCI-H2009 | 0.167
97 | NCI-H2023 | 0.307
98 | NCI-H2085 | 0.437
99 | NCI-H2087 | 0.178
100 | NCI-H2126 | 0.34
101 | NCI-H2170 | 0.298
102 | NCI-H2228 | 0.667
103 | NCI-H2342 | 0.572
104 | NCI-H2347 | 0.392
105 | NCI-H2405 | 0.479
106 | NCI-H3122 | 0.228
107 | PC-3 [JPC-3] | 0.53
108 | PC-14 | 0.33
109 | RERF-LC-KJ | 0.984
110 | SK-LU-1 | 0.339
111 | SK-MES-1 | 0.278
112 | SW 900 | 0.435
113 | SW 1573 | 0.252
114 | UMC-11 | 0.323

compound: N#CC1(c2ccc(NC(=O)c3cccnc3NCc3ccncc3)cc2)CCCC1 [Apatinib] + O=C(c1cc(Cc2n[nH]c(=O)c3ccccc23)ccc1F)N1CCN(C(=O)C2CC2)CC1 [Olaparib] (partner 8 µM); assay: as above; settings: first compound 0.08 µM
Procedure, shortened: as §1

Row | Cell Line | relative viability
115 | NCI-H1915 | 0.262
116 | NCI-H1944 | 0.407
117 | NCI-H1975 | 0.795
118 | NCI-H1993 | 0.991
119 | NCI-H2009 | 0.722
120 | NCI-H2023 | 0.429
121 | NCI-H2085 | 0.763
122 | NCI-H2087 | 0.633
123 | NCI-H2126 | 0.973
124 | NCI-H2170 | 0.617
125 | NCI-H2228 | 0.837
126 | NCI-H2342 | 0.419
127 | NCI-H2347 | 0.634
128 | NCI-H2405 | 0.916
129 | NCI-H3122 | 0.609
130 | PC-14 | 0.278
131 | RERF-LC-KJ | 0.919
132 | SK-LU-1 | 0.503
133 | SK-MES-1 | 0.858
134 | SW 900 | 0.974
135 | SW 1573 | 0.586
136 | UMC-11 | 1.14

same assay, conditions: first compound 0.253 µM

Row | Cell Line | relative viability
137 | NCI-H1915 | 0.257
138 | NCI-H1944 | 0.378
139 | NCI-H1975 | 0.77
140 | NCI-H1993 | 1.05
141 | NCI-H2009 | 0.651
142 | NCI-H2023 | 0.508
143 | NCI-H2085 | 0.748
144 | NCI-H2087 | 0.653
145 | NCI-H2126 | 0.861
146 | NCI-H2170 | 0.623
147 | NCI-H2228 | 0.754
148 | NCI-H2342 | 0.477
149 | NCI-H2347 | 0.485
150 | NCI-H2405 | 0.883
151 | NCI-H3122 | 0.655
152 | PC-3 [JPC-3] | 1.12
153 | PC-14 | 0.28
154 | RERF-LC-KJ | 0.801
155 | SK-LU-1 | 0.453
156 | SK-MES-1 | 0.665
157 | SW 900 | 0.823
158 | SW 1573 | 0.506
159 | UMC-11 | 0.411

same assay, conditions: first compound 0.8 µM

Row | Cell Line | relative viability
160 | NCI-H1915 | 0.266
161 | NCI-H1944 | 0.37
162 | NCI-H1975 | 0.727
163 | NCI-H1993 | 1.05
164 | NCI-H2009 | 0.64
165 | NCI-H2023 | 0.462
166 | NCI-H2085 | 0.766
167 | NCI-H2087 | 0.541
168 | NCI-H2126 | 0.88
169 | NCI-H2170 | 0.638
170 | NCI-H2228 | 0.456
171 | NCI-H2342 | 0.457
172 | NCI-H2347 | 0.583
173 | NCI-H2405 | 0.837
174 | NCI-H3122 | 0.525
175 | PC-3 [JPC-3] | 0.983
176 | PC-14 | 0.222
177 | RERF-LC-KJ | 0.903
178 | SK-LU-1 | 0.435
179 | SK-MES-1 | 0.627
180 | SW 900 | 0.842
181 | SW 1573 | 0.463
182 | UMC-11 | 0.397

same assay, conditions: first compound 2.53 µM

Row | Cell Line | relative viability
183 | NCI-H1915 | 0.264
184 | NCI-H1944 | 0.346
185 | NCI-H1975 | 0.723
186 | NCI-H1993 | 0.984
187 | NCI-H2009 | 0.431
188 | NCI-H2023 | 0.35
189 | NCI-H2085 | 0.68
190 | NCI-H2087 | 0.645
191 | NCI-H2126 | 0.845
192 | NCI-H2170 | 0.49
193 | NCI-H2228 | 0.58
194 | NCI-H2342 | 0.438
195 | NCI-H2347 | 0.517
196 | NCI-H2405 | 0.821
197 | NCI-H3122 | 0.613
198 | PC-3 [JPC-3] | 1.1
199 | PC-14 | 0.213
200 | RERF-LC-KJ | 0.782
201 | SK-LU-1 | 0.549
202 | SK-MES-1 | 0.592
203 | SW 900 | 0.714
204 | SW 1573 | 0.325
205 | UMC-11 | 0.328

same assay, conditions: first compound 8 µM

Row | Cell Line | relative viability
206 | NCI-H1915 | 0.239
207 | NCI-H1944 | 0.319
208 | NCI-H1975 | 0.634
209 | NCI-H1993 | 1.04
210 | NCI-H2009 | 0.443
211 | NCI-H2023 | 0.395
212 | NCI-H2085 | 0.771
213 | NCI-H2087 | 0.493
214 | NCI-H2126 | 0.904
215 | NCI-H2170 | 0.485
216 | NCI-H2228 | 0.323
217 | NCI-H2342 | 0.368
218 | NCI-H2347 | 0.493
219 | NCI-H2405 | 0.752
220 | NCI-H3122 | 0.597
221 | PC-3 [JPC-3] | 1.06
222 | PC-14 | 0.252
223 | RERF-LC-KJ | 0.715
224 | SK-LU-1 | 0.436
225 | SK-MES-1 | 0.411
226 | SW 900 | 0.606
227 | SW 1573 | 0.357
228 | UMC-11 | 0.365
